This passage reports IC50 results from patent US10703764B2, “Benzopiperazine compositions as BET bromodomain inhibitors” (FORMA Therapeutics, Inc., priority 2013, dated 2020).

The structures appear in SMILES notation.

For assay [1], the target named is T1, BRD4 BD2 (Homo sapiens, UniProt O60885).
T1 construct: made in house
Briefly: AlphaScreen binding assay, BRD4 Bromodomain 2. An outline of the steps: (§1)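 An AlphaScreen competition format was used with His-BRD4 BD1 or BD2 and biotin-H4 K5/8/12/16-acetyl peptide, each at matched final levels of 50 nM (BD1) or 100 nM (BD2). Incubation in HEPES/NaCl buffer with 0.1% BSA and 0.01% Triton X-100 ran ≥1 h before IC50 determination.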

The target in assay [2] is T2, BRD4 BD1 (Homo sapiens, UniProt O60885).
T2 construct: made in house
Briefly: AlphaScreen binding assay, BRD4 Bromodomain 1. An outline of the steps: as §1

The subject of assay [3] is MV4-11 cells. Briefly: Oncology cell growth assay (3-day proliferation, CellTiter-Glo). It counts as cell-based. Particulars: Homo sapiens, MV4-11, 72 h, AML cell line MV4-11, 72 hours, compounds grouped by IC50 range, read-out: MV4-11 IC50 (inhibition of proliferation, gIC50). An outline of the steps: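 MV4-11 AML cells (RPMI 1640, 10% FBS) plated at 3000 cells/well and exposed 72 h to compound at final 10 to 0.0045 μM (3-fold series). Viability read by CellTiter-Glo luminescence; gIC50 from four-parameter logistic fit between DMSO control and no-cell background.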

For `CC(=O)N1c2ccc(-c3cnn(CCn4ccnc4)c3)cc2N(C(=O)OC(C)C)C[C@@H]1C` [Example I-598], the IC50 in assay [1] fell in the range of 50 to 500 nM; in assay [2], 100 to 1000 nM; in assay [3] it was 100 to 500 nM.
On the same counts, the results for `CC(=O)N1c2ccc(-c3cnn(C(C)(C)CO)c3)cc2N(C(=O)OC(C)C)C[C@@H]1C` [Example I-1275] are under 50 nM, 100 to 1000 nM and 100 to 500 nM.
For `CC(=O)N1c2ccc(-c3ccc(S(=O)(=O)N(C)C)cc3)cc2N(C(=O)C2CCC2)C[C@@H]1C` [Example I-1124], in that order: 50 to 500 nM, 1000 to 10000 nM and 100 to 500 nM.
On the same counts, the results for `CC(=O)N1c2ccc(-c3ccc(C(=O)N4CCN(C)CC4)cc3)cc2N(C(=O)OC(C)C)C[C@@H]1C` [Example I-544] are 50 to 500 nM, 100 to 1000 nM and 100 to 500 nM.
For `COC(=O)N1c2ccc(-c3cnn(Cc4c(C)noc4C)c3)cc2N(C(=O)OC(C)C)C[C@@H]1C` [Example I-634], the IC50 lay within 50 to 500 nM in assay [1], 100 to 1000 nM in assay [2] and 100 to 500 nM in assay [3].
For `CCS(=O)(=O)Nc1cccc(-c2ccc3c(c2)N(C(=O)OC(C)C)C[C@H](C)N3C(C)=O)c1` [Example I-1057], in that order: 50 to 500 nM, 100 to 1000 nM and 100 to 500 nM.
Turning to `CC(=O)N1c2ccc(-c3cnn(CCCO)c3)cc2N(C(=O)C2CC2)C[C@@H]1C` [Example I-673], the IC50 in assay [1] fell in the range of 50 to 500 nM; in assay [2] it was 100 to 1000 nM; in assay [3] it was 100 to 500 nM.
For `CC(=O)N1c2ccc(-c3cccc(S(N)(=O)=O)c3)cc2N(C(=O)c2ccco2)C[C@@H]1C` [Example I-841], in that order: under 50 nM, 1000 to 10000 nM and 100 to 500 nM.
On the same counts, the results for `CC(=O)N1c2ccc(-c3cnn(C4CCNCC4)c3)cc2N(C(=O)C2CC2)C[C@@H]1C` [Example I-359] are under 50 nM, 1000 to 10000 nM and 100 to 500 nM.
On the same counts, the results for `CC(=O)N1c2ccc(-c3ccc(C(=O)N4CC[C@@H](N)C4)cc3)cc2N(C(=O)OC(C)C)C[C@@H]1C` [Example I-532] are 50 to 500 nM, 100 to 1000 nM and 100 to 500 nM.
As for `CC(=O)N1c2ccc(-c3ccc(F)c(S(C)(=O)=O)c3)cc2N(C(=O)OC2CCCCC2)C[C@@H]1C` [Example I-1249], the IC50 in assay [1] lay within 50 to 500 nM; in assay [2], 1000 to 10000 nM; in assay [3], 100 to 500 nM.
On the same counts, the results for `CC(=O)N1c2ccc(-c3cnn(Cc4ccnn4C)c3)cc2N(C(=O)C2CC2)C[C@@H]1C` [Example I-652] are 50 to 500 nM, 100 to 1000 nM and over 500 nM.
For `CC(=O)N1c2ccc(-c3cn(C)nc3C)cc2N(C(=O)OC(C)C)C[C@@H]1C` [Example I-338], in that order: 50 to 500 nM, 100 to 1000 nM and over 500 nM.
With `CC(=O)N1c2ccc(-c3ccc4c(c3)N(C)S(=O)(=O)N4)cc2N(C(=O)C2CC2)C[C@@H]1C` [Example I-1175], the values for the IC50 in assay [1], in assay [2] and in assay [3] were 50 to 500 nM, 100 to 1000 nM and over 500 nM, respectively.
For `CC(=O)N1c2ccc(-c3ccc(S(=O)(=O)CCN)cc3)cc2N(C(=O)c2ccco2)C[C@@H]1C` [Example I-425], in that order: under 50 nM, 100 to 1000 nM and 100 to 500 nM.
For `CC(=O)N1c2ccc(-c3ccc(-c4ncco4)cc3)cc2N(C(=O)c2ccco2)C[C@@H]1C` [Example I-412], in that order: under 50 nM, 1000 to 10000 nM and 100 to 500 nM.
Regarding `COc1ccccc1OC(=O)N1C[C@H](C)N(C(C)=O)c2ccc(-c3cnn(C4CC4)c3)cc21` [Example I-258], the IC50 in assay [1] is under 50 nM; in assay [2], 100 to 1000 nM; in assay [3], under 100 nM.
On the same counts, the results for `CC(=O)N1c2ccc(-c3ccc(C(=O)N4C[C@@H]5C[C@H]4CN5)cc3)cc2N(C(=O)OC(C)C)C[C@@H]1C` [Example I-593] are 50 to 500 nM, 100 to 1000 nM and 100 to 500 nM.
On the same counts, the results for `CC(=O)N1c2ccc(-c3cccc(S(=O)(=O)C4CC4)c3)cc2N(C(=O)C2CC2)C[C@@H]1C` [Example I-1086] are 50 to 500 nM, 1000 to 10000 nM and over 500 nM.
For `CC(=O)N1c2ccc(-c3ccc4cnccc4c3)cc2N(C(=O)c2ccco2)C[C@@H]1C` [Example I-864], in that order: 50 to 500 nM, 100 to 1000 nM and 100 to 500 nM.
As for `CC(=O)N1c2ccc(-c3ccc(S(C)(=O)=O)cc3)cc2N(C(=O)Oc2ccc3ccccc3c2)C[C@@H]1C` [Example I-239], the IC50 in assay [1] was under 50 nM; in assay [2] it was 1000 to 10000 nM; in assay [3], 100 to 500 nM.
On the same counts, the results for `CC(=O)N1c2ccc(-c3ccc(C4(O)COC4)cc3)cc2N(C(=O)c2ccco2)C[C@@H]1C` [Example I-415] are under 50 nM, 100 to 1000 nM and 100 to 500 nM.
On the same counts, the results for `CCNS(=O)(=O)c1ccc(-c2ccc3c(c2)N(C(=O)OCC)C[C@H](C)N3C(C)=O)cc1` [Example I-1137] are 50 to 500 nM, 100 to 1000 nM and 100 to 500 nM.
On the same counts, the results for `CC(=O)N1c2ccc(-c3cccc(NS(=O)(=O)c4ccc(C)cc4)c3)cc2N(C(=O)c2ccco2)C[C@@H]1C` [Example I-859] are under 50 nM, 100 to 1000 nM and 100 to 500 nM.
With `CC(=O)N1c2ccc(-c3ccc(OCCS(C)(=O)=O)cc3)cc2N(C(=O)OC2CCCCC2)C[C@@H]1C` [Example I-1251], the IC50 lay within 50 to 500 nM in assay [1], 100 to 1000 nM in assay [2] and 100 to 500 nM in assay [3].
On to `CC(=O)N1c2ccc(-c3cnn(Cc4c[nH]cn4)c3)cc2N(C(=O)OC(C)C)CC1C` (stereo not drawn) [Example I-601], for which the IC50 is under 50 nM in assay [1], 100 to 1000 nM in assay [2] and 100 to 500 nM in assay [3].
On the same counts, the results for `CC(=O)N1c2ccc(-c3cnn(C4CC4)c3)cc2N(C(=O)OC(CF)CF)C[C@@H]1C` [Example I-80, (S)-1,3-difluoropropan-2-yl 4-acetyl-7-(1-cyclopropyl-1H-pyrazol-4-yl)-3-methyl-3,4-dihydroquinoxaline-1(2H)-carboxylate] are 50 to 500 nM, 100 to 1000 nM and 100 to 500 nM.
On the same counts, the results for `CC(=O)N1c2ccc(-c3cccc(NS(C)(=O)=O)c3)cc2N(C(=O)C2CCC2)C[C@@H]1C` [Example I-1044] are 50 to 500 nM, 1000 to 10000 nM and over 500 nM.
For the molecule `CC(=O)N1c2ccc(-c3cnn(C4COC4)c3)cc2N(C(=O)C2(C)CC2)C[C@@H]1C` [Example I-114, (S)-1-(2-methyl-4-(1-methylcyclopropanecarbonyl)-6-(1-(oxetan-3-yl)-1H-pyrazol-4-yl)-3,4-dihydroquinoxalin-1(2H)-yl)ethanone], the IC50 was 50 to 500 nM in assay [1], over 10000 nM in assay [2] and over 500 nM in assay [3].
On to `CC(=O)N1c2ccc(-c3cnn(C4CC4)c3)cc2N(C(=O)Oc2ccc3ncsc3c2)C[C@@H]1C` [Example I-527], for which the IC50 in assay [1] is 50 to 500 nM; in assay [2] it was 100 to 1000 nM; in assay [3] it was under 100 nM.
